# Source: US11154529B2, “Phosphaplatin liquid formulations” (Phosplatin Therapeutics Inc., priority 2016, dated 2021)
# Experiment: Ready-to-use formulation stability at 25° C./60% RH, 5 mg/mL (R,R)-pyrodach-2 in 10 mM Bicarbonate Buffer at pH 8.6, 10 mL vials
# Assay type: physicochemical
compound,measurement,setting,value
"O=P1(O)OP(=O)(O)[O][Pt]2([NH][C@@H]3CCCC[C@H]3[NH]2)[O]1 (stereo partly drawn) [(R,R)-pyrodach-2, (R,R)-trans-1,2-cyclohexanediamine-(dihydrogenpyrophosphato)platinum(II)]",Potency (Assay),1 month,98.9%
same,Purity (% Area),1 month,97.44%
same,Unknown Impurities RRT~0.29,1 month,0.16%
same,Unknown Impurities RRT~0.42,1 month,0.21%
same,Unknown Impurities RRT~0.49,1 month,0.75%
same,Unknown Impurities RRT~0.59,1 month,0.15%
same,Unknown Impurities RRT~0.73,1 month,1.03%
same,Unknown Impurities RRT~1.82,1 month,"ND (ND = Not Detected, or <0.05%)"
same,Unknown Impurities RRT~2.85,1 month,"ND (ND = Not Detected, or <0.05%)"
same,Unknown Impurities RRT~3.00,1 month,"ND (ND = Not Detected, or <0.05%)"
same,Unknown Impurities RRT~3.15,1 month,"ND (ND = Not Detected, or <0.05%)"
same,Unknown Impurities RRT~3.30,1 month,"ND (ND = Not Detected, or <0.05%)"
same,Unknown Impurities RRT~3.45,1 month,"ND (ND = Not Detected, or <0.05%)"
same,Unknown Impurities RRT~3.74,1 month,0.08%
same,Unknown Impurities RRT~4.27,1 month,"ND (ND = Not Detected, or <0.05%)"
same,Unknown Impurities RRT~4.99,1 month,"ND (ND = Not Detected, or <0.05%)"
same,pH,1 month,8.68
same,Potency (Assay),1 week,101.7%
same,Purity (% Area),1 week,97.74%
same,Unknown Impurities RRT~0.29,1 week,0.11%
same,Unknown Impurities RRT~0.42,1 week,0.05%
same,Unknown Impurities RRT~0.49,1 week,0.78%
same,Unknown Impurities RRT~0.59,1 week,0.06%
same,Unknown Impurities RRT~0.73,1 week,1.12%
same,Unknown Impurities RRT~1.82,1 week,"ND (ND = Not Detected, or <0.05%)"
same,Unknown Impurities RRT~2.85,1 week,"ND (ND = Not Detected, or <0.05%)"
same,Unknown Impurities RRT~3.00,1 week,"ND (ND = Not Detected, or <0.05%)"
same,Unknown Impurities RRT~3.15,1 week,"ND (ND = Not Detected, or <0.05%)"
same,Unknown Impurities RRT~3.30,1 week,"ND (ND = Not Detected, or <0.05%)"
same,Unknown Impurities RRT~3.45,1 week,"ND (ND = Not Detected, or <0.05%)"
same,Unknown Impurities RRT~3.74,1 week,"ND (ND = Not Detected, or <0.05%)"
same,Unknown Impurities RRT~4.27,1 week,"ND (ND = Not Detected, or <0.05%)"
same,Unknown Impurities RRT~4.99,1 week,"ND (ND = Not Detected, or <0.05%)"
same,pH,1 week,8.57
same,Potency (Assay),2 month,100.4%
same,Purity (% Area),2 month,96.45%
same,Unknown Impurities RRT~0.29,2 month,0.19%
same,Unknown Impurities RRT~0.42,2 month,0.56%
same,Unknown Impurities RRT~0.49,2 month,0.79%
same,Unknown Impurities RRT~0.59,2 month,0.26%
same,Unknown Impurities RRT~0.73,2 month,0.97%
same,Unknown Impurities RRT~1.82,2 month,"ND (ND = Not Detected, or <0.05%)"
same,Unknown Impurities RRT~2.85,2 month,0.12%
same,Unknown Impurities RRT~3.00,2 month,"ND (ND = Not Detected, or <0.05%)"
same,Unknown Impurities RRT~3.15,2 month,"ND (ND = Not Detected, or <0.05%)"
same,Unknown Impurities RRT~3.30,2 month,"ND (ND = Not Detected, or <0.05%)"
same,Unknown Impurities RRT~3.45,2 month,0.05%
same,Unknown Impurities RRT~3.74,2 month,0.31%
same,Unknown Impurities RRT~4.27,2 month,"ND (ND = Not Detected, or <0.05%)"
same,Unknown Impurities RRT~4.99,2 month,0.07%
same,pH,2 month,8.73
same,Potency (Assay),2 week,99.9%
same,Purity (% Area),2 week,97.77%
same,Unknown Impurities RRT~0.29,2 week,0.12%
same,Unknown Impurities RRT~0.42,2 week,0.10%
same,Unknown Impurities RRT~0.49,2 week,0.77%
same,Unknown Impurities RRT~0.59,2 week,"ND (ND = Not Detected, or <0.05%)"
same,Unknown Impurities RRT~0.73,2 week,1.17%
same,Unknown Impurities RRT~1.82,2 week,"ND (ND = Not Detected, or <0.05%)"
same,Unknown Impurities RRT~2.85,2 week,"ND (ND = Not Detected, or <0.05%)"
same,Unknown Impurities RRT~3.00,2 week,"ND (ND = Not Detected, or <0.05%)"
same,Unknown Impurities RRT~3.15,2 week,"ND (ND = Not Detected, or <0.05%)"
same,Unknown Impurities RRT~3.30,2 week,"ND (ND = Not Detected, or <0.05%)"
same,Unknown Impurities RRT~3.45,2 week,"ND (ND = Not Detected, or <0.05%)"
same,Unknown Impurities RRT~3.74,2 week,"ND (ND = Not Detected, or <0.05%)"
same,Unknown Impurities RRT~4.27,2 week,"ND (ND = Not Detected, or <0.05%)"
same,Unknown Impurities RRT~4.99,2 week,"ND (ND = Not Detected, or <0.05%)"
same,pH,2 week,8.64
same,Potency (Assay),3 month,101.6%
same,Purity (% Area),3 month,96.08%
same,Unknown Impurities RRT~0.29,3 month,0.27%
same,Unknown Impurities RRT~0.42,3 month,0.76%
same,Unknown Impurities RRT~0.49,3 month,0.78%
same,Unknown Impurities RRT~0.59,3 month,0.25%
same,Unknown Impurities RRT~0.73,3 month,0.92%
same,Unknown Impurities RRT~1.82,3 month,"ND (ND = Not Detected, or <0.05%)"
same,Unknown Impurities RRT~2.85,3 month,0.17%
same,Unknown Impurities RRT~3.00,3 month,"ND (ND = Not Detected, or <0.05%)"
same,Unknown Impurities RRT~3.15,3 month,"ND (ND = Not Detected, or <0.05%)"
same,Unknown Impurities RRT~3.30,3 month,"ND (ND = Not Detected, or <0.05%)"
same,Unknown Impurities RRT~3.45,3 month,"ND (ND = Not Detected, or <0.05%)"
same,Unknown Impurities RRT~3.74,3 month,0.40%
same,Unknown Impurities RRT~4.27,3 month,0.06%
same,Unknown Impurities RRT~4.99,3 month,0.14%
same,pH,3 month,9.01
same,Potency (Assay),3 week,100.3%
same,Purity (% Area),3 week,97.33%
same,Unknown Impurities RRT~0.29,3 week,0.16%
same,Unknown Impurities RRT~0.42,3 week,0.15%
same,Unknown Impurities RRT~0.49,3 week,0.76%
same,Unknown Impurities RRT~0.59,3 week,0.12%
same,Unknown Impurities RRT~0.73,3 week,1.26%
same,Unknown Impurities RRT~1.82,3 week,"ND (ND = Not Detected, or <0.05%)"
same,Unknown Impurities RRT~2.85,3 week,"ND (ND = Not Detected, or <0.05%)"
same,Unknown Impurities RRT~3.00,3 week,"ND (ND = Not Detected, or <0.05%)"
same,Unknown Impurities RRT~3.15,3 week,"ND (ND = Not Detected, or <0.05%)"
same,Unknown Impurities RRT~3.30,3 week,"ND (ND = Not Detected, or <0.05%)"
same,Unknown Impurities RRT~3.45,3 week,"ND (ND = Not Detected, or <0.05%)"
same,Unknown Impurities RRT~3.74,3 week,0.06%
same,Unknown Impurities RRT~4.27,3 week,"ND (ND = Not Detected, or <0.05%)"
same,Unknown Impurities RRT~4.99,3 week,"ND (ND = Not Detected, or <0.05%)"
same,pH,3 week,8.67
same,Potency (Assay),4 month,103.0%
same,Purity (% Area),4 month,95.98%
same,Unknown Impurities RRT~0.29,4 month,0.16%
same,Unknown Impurities RRT~0.42,4 month,0.96%
same,Unknown Impurities RRT~0.49,4 month,0.94%
same,Unknown Impurities RRT~0.59,4 month,0.17%
same,Unknown Impurities RRT~0.73,4 month,0.73%
same,Unknown Impurities RRT~1.82,4 month,"ND (ND = Not Detected, or <0.05%)"
same,Unknown Impurities RRT~2.85,4 month,0.17%
same,Unknown Impurities RRT~3.00,4 month,"ND (ND = Not Detected, or <0.05%)"
same,Unknown Impurities RRT~3.15,4 month,"ND (ND = Not Detected, or <0.05%)"
same,Unknown Impurities RRT~3.30,4 month,"ND (ND = Not Detected, or <0.05%)"
same,Unknown Impurities RRT~3.45,4 month,"ND (ND = Not Detected, or <0.05%)"
same,Unknown Impurities RRT~3.74,4 month,0.58%
same,Unknown Impurities RRT~4.27,4 month,0.06%
same,Unknown Impurities RRT~4.99,4 month,0.20%
same,pH,4 month,8.90
same,Potency (Assay),6 month,99.2%
same,Purity (% Area),6 month,95.03%
same,Unknown Impurities RRT~0.29,6 month,0.22%
same,Unknown Impurities RRT~0.42,6 month,1.29%
same,Unknown Impurities RRT~0.49,6 month,0.80%
same,Unknown Impurities RRT~0.59,6 month,0.32%
same,Unknown Impurities RRT~0.73,6 month,0.82%
same,Unknown Impurities RRT~1.82,6 month,"ND (ND = Not Detected, or <0.05%)"
same,Unknown Impurities RRT~2.85,6 month,0.15%
same,Unknown Impurities RRT~3.00,6 month,0.07%
same,Unknown Impurities RRT~3.15,6 month,"ND (ND = Not Detected, or <0.05%)"
same,Unknown Impurities RRT~3.30,6 month,0.05%
same,Unknown Impurities RRT~3.45,6 month,"ND (ND = Not Detected, or <0.05%)"
same,Unknown Impurities RRT~3.74,6 month,0.69%
same,Unknown Impurities RRT~4.27,6 month,0.08%
same,Unknown Impurities RRT~4.99,6 month,0.36%
same,pH,6 month,8.93
same,Potency (Assay),9 month,100.3%
same,Purity (% Area),9 month,93.82%
same,Unknown Impurities RRT~0.29,9 month,0.15%
same,Unknown Impurities RRT~0.42,9 month,1.88%
same,Unknown Impurities RRT~0.49,9 month,0.84%
same,Unknown Impurities RRT~0.59,9 month,0.32%
same,Unknown Impurities RRT~0.73,9 month,0.43%
same,Unknown Impurities RRT~1.82,9 month,0.05%
same,Unknown Impurities RRT~2.85,9 month,0.32%
same,Unknown Impurities RRT~3.00,9 month,"ND (ND = Not Detected, or <0.05%)"
same,Unknown Impurities RRT~3.15,9 month,0.07%
same,Unknown Impurities RRT~3.30,9 month,0.10%
same,Unknown Impurities RRT~3.45,9 month,0.06%
same,Unknown Impurities RRT~3.74,9 month,0.88%
same,Unknown Impurities RRT~4.27,9 month,0.13%
same,Unknown Impurities RRT~4.99,9 month,0.66%
same,pH,9 month,9.08
same,Potency (Assay),12 month,98.4%
same,Purity (% Area),12 month,92.23%
same,Unknown Impurities RRT~0.29,12 month,0.14%
same,Unknown Impurities RRT~0.42,12 month,2.20%
same,Unknown Impurities RRT~0.49,12 month,0.86%
same,Unknown Impurities RRT~0.59,12 month,0.32%
same,Unknown Impurities RRT~0.73,12 month,0.97%
same,Unknown Impurities RRT~1.82,12 month,0.06%
same,Unknown Impurities RRT~2.85,12 month,0.37%
same,Unknown Impurities RRT~3.00,12 month,0.06%
same,Unknown Impurities RRT~3.15,12 month,0.06%
same,Unknown Impurities RRT~3.30,12 month,0.12%
same,Unknown Impurities RRT~3.45,12 month,0.05%
same,Unknown Impurities RRT~3.74,12 month,1.07%
same,Unknown Impurities RRT~4.27,12 month,0.15%
same,Unknown Impurities RRT~4.99,12 month,1.02%
same,pH,12 month,9.07
same,Potency (Assay),Initial,100.3%
same,Purity (% Area),Initial,98.04%
same,Unknown Impurities RRT~0.29,Initial,0.11%
same,Unknown Impurities RRT~0.42,Initial,"ND (ND = Not Detected, or <0.05%)"
same,Unknown Impurities RRT~0.49,Initial,0.62%
same,Unknown Impurities RRT~0.59,Initial,"ND (ND = Not Detected, or <0.05%)"
same,Unknown Impurities RRT~0.73,Initial,1.05%
same,Unknown Impurities RRT~1.82,Initial,"ND (ND = Not Detected, or <0.05%)"
same,Unknown Impurities RRT~2.85,Initial,"ND (ND = Not Detected, or <0.05%)"
same,Unknown Impurities RRT~3.00,Initial,"ND (ND = Not Detected, or <0.05%)"
same,Unknown Impurities RRT~3.15,Initial,"ND (ND = Not Detected, or <0.05%)"
same,Unknown Impurities RRT~3.30,Initial,"ND (ND = Not Detected, or <0.05%)"
same,Unknown Impurities RRT~3.45,Initial,"ND (ND = Not Detected, or <0.05%)"
same,Unknown Impurities RRT~3.74,Initial,"ND (ND = Not Detected, or <0.05%)"
same,Unknown Impurities RRT~4.27,Initial,"ND (ND = Not Detected, or <0.05%)"
same,Unknown Impurities RRT~4.99,Initial,"ND (ND = Not Detected, or <0.05%)"
same,pH,Initial,8.60
